Results on three compounds are retold here after PubChem BioAssay (NCI).

The term TGI denotes the concentration at which net growth stops. Read a low TGI as greater sensitivity of the cells.

Some test systems named below: UACC-257 melanoma; HS 578T breast; NCI/ADR-RES ovarian; MDA-N; KM12 colon; T-47D breast; NCI-H23 lung; RPMI-8226 leukemia; SK-MEL-5 melanoma; MDA-MB-435; MALME-3M melanoma; NCI-H226 lung; HOP-62 NSCLC; M19-MEL melanoma; DMS 273 small cell lung; DMS 114 small cell lung; LXFL 529 NSCLC; DLD-1 colon; SNB-78 CNS; HOP-18 NSCLC.
Assay in all cases: DTP human tumour cell line panel, 48 h

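Five concentrations, 48 hours, 96-well plates. TGI: total growth inhibition.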

As for `CCOC(=O)C1=NN(c2ccc(Cl)cc2)C2=CC(C)=NN(C)C(=S)N21`, the TGI was more than 100 µM with UACC-257 melanoma; more than 100 µM in the assay on HS 578T breast; more than 100 µM with NCI/ADR-RES ovarian; more than 100 µM with MDA-N; more than 100 µM in the assay on KM12 colon; 94.8 µM in the assay on T-47D breast. In addition, the concentration for total growth inhibition (TGI) in the assay on NCI-H23 lung, with RPMI-8226 leukemia, in the assay on SK-MEL-5 melanoma and with MDA-MB-435 was more than 100 µM each time.

`COc1ccc(/C=N/n2cnc3c(c2=O)S/C(=C2/SC(=S)N(c4ccc(C)cc4)C2=O)N3c2ccccc2)cc1`: the concentration for total growth inhibition (TGI) in the assay with MALME-3M melanoma is 60.3 µM; in the assay with NCI-H226 lung it was more than 100 µM; in the assay with HOP-62 NSCLC, 70.9 µM; in the assay on M19-MEL melanoma it was more than 100 µM; in the assay on KM12 colon, more than 100 µM; with DMS 273 small cell lung, more than 100 µM. In addition, the TGI in the assay on RPMI-8226 leukemia, in the assay on DMS 114 small cell lung and in the assay with LXFL 529 NSCLC was more than 100 µM throughout.

With `COc1ccc(/C(Cl)=C(\C=O)c2ccccc2)cc1OC`, the total growth inhibition concentration (TGI) with UACC-257 melanoma is more than 100 µM; in the assay on MALME-3M melanoma, more than 100 µM; with NCI-H226 lung it was 82.2 µM; with DLD-1 colon it was more than 100 µM; in the assay on HOP-62 NSCLC, 81.8 µM; with SNB-78 CNS, more than 100 µM. Besides, the TGI in the assay on M19-MEL melanoma, with DMS 273 small cell lung, in the assay with NCI-H23 lung, in the assay with DMS 114 small cell lung, in the assay on SK-MEL-5 melanoma and with HOP-18 NSCLC was more than 100 µM each time. Further, the TGI in the assay with LXFL 529 NSCLC worked out at 55.1 µM.
